Patent EP4755386A1, “SKIN PERMEATION PROMOTER AND SKIN PERMEATION PROMOTION METHOD” (Toyo Sugar Refining Co., Ltd., priority 2023, dated 2025)

Details: pH 7.4
Description: As a bioactive substance, flavone (manufactured by Tokyo Chemical Industry Co., Ltd., NO. H0721) was used.
Any substance in the substance group A and a bioactive substance were added to 10 mL of distilled water and mixed to prepare a solution (or suspension), which was used as a test liquid. The substance in the substance group A was added in an amount such that the concentration in the test liquid was 10 mg/mL. The bioactive substance was added in an amount such that the concentration in the test liquid was 250 µg/mL. As a control, a test liquid (flavone only) to which a substance in the substance group A was not added was also prepared.
A receptor part of a Franz-type vertical diffusion cell was filled with a phosphate buffer (pH 7.4) containing 0.5% sodium taurocholate, and a Strat-M membrane for a transdermal diffusion test (manufactured by Merck) was attached as a permeable membrane. After 400 µL of the test liquid was dropped on the donor side, a receptor liquid was sampled over time. The amount of the bioactive substance in the sampled receptor liquid was quantified by high performance liquid chromatography. The experiment was performed with N = 1.

skin permeation amount of flavone: hardly changed
Compound: C[C@@H]1O[C@@H](O[C@H]2[C@H](Oc3cc(O)c4c(c3)O[C@H](c3ccc(O)cc3)CC4=O)O[C@H](CO)[C@@H](O)[C@@H]2O)[C@H](O)[C@H](O)[C@H]1O [naringin, Naringin]
